Laboratory results reported in patent US6391329B1, “Insect pest control method” (Earth Chemical Co., Ltd., priority 1994, dated 2002).
Where two headings read alike, the source gives them in different places.

What was measured:
[1] = Vapor pressure measurement of pyrethroid compounds with the vapor pressure measuring apparatus
[2] = at 30° C.; cited from earlier work
[3] = system: sensitive German cockroaches (Blatella germanica); assay: Cockroach knockdown and mortality in 24 m^3 test room (Example 3); format: in vivo; details: 1.0 g pesticidal component
Procedure: (§1) The insect pest control apparatus of the present invention was put at the center of the floor of the room, and two cups each containing 20 cockroaches were placed at each of the two opposite corners of the floor. The pesticidal component shown in Table 5 below was released from the apparatus for consecutive 24 hours. As test insects, sensitive German cockroaches (Blatella germanica) and sensitive smokybrown cockroaches (Periplaneta fuliginosa) were used.
(§2) The preparation-retaining material used was prepared by impregnating a honeycomb carrier (70×70×15 mm; FIG. 3) with 1.0 g of the pesticidal component.

[4] = system: sensitive smokybrown cockroaches (Periplaneta fuliginosa); assay: as above; format: in vivo; details: 1.0 g pesticidal component
Procedure: as §1, §2

[5] = Vapor pressure at 30° C. on the cox diagram; format: physicochemical
Procedure: Compounds which are hard to vaporize at normal temperature can be used in the present invention as a pesticidal component. Those having a vapor pressure […] than 1×10^−7 mmHg at 30° C. and a boiling point of not lower than 120° C./1 mmHg are preferred. It should be noted that the range of vapor pressure as referred to herein is the range at 30° C. on the vapor pressure vs. temperature plot in the cox diagram hereinafter described.
The results of our study have made it possible to suppose or know the vapor pressure at a target temperature by utilizing the cox diagram only if at least one found value is available. The aforesaid problem can thus be solved.
The cox diagram as used herein is the straight line or a group of the straight lines obtained by plotting log P as ordinate and t/(t+C) as abscissa on a graph.

[6] = system: Northern house mosquito (female adult); assay: Insecticidal test in acrylic resin cylinder, air blown through impregnated honeycomb carrier (Example 1); format: in vivo; details: 500 mg preparation; for number of knockdowns: 26 to 30° C.
From the text: Testing apparatus 1 shown in FIG. 1 comprising acrylic resin cylinder 4 was used. Twenty of northern house mosquitos (female adult) were put in the space partitioned with insect nets 2, and blower 3 was set at the bottom of testing apparatus 1. Preparation-retaining material 5 comprising a honeycomb carrier impregnated with a preparation was fitted in at the lower part of cylinder 4 and above blower 3. Air was blown from the bottom of cylinder 4 and passed through the preparation-retaining material 5 to release the pesticidal component from the preparation, and the insecticidal effect was examined using apparatus 1 for insect control of the present invention.
The number of knockdowns of the mosquitos was counted for every 30 seconds during 10 minutes and 30 seconds following the start of the testing. The mosquitos knocked down were transferred to a clean plastic cup (volume: about 500 ml) containing a cotton wad impregnated with a 1% aqueous sugar solution as feed, and the cup was covered and maintained under constant temperature conditions of about 25° C. […]
The preparation-retaining material used herein was prepared as follows. A honeycomb structure (70×70×15 mm) comprising a laminate of corrugated boards (single-sided) made of bleached kraft paper having a basis weight of 80 g/m^2 (height of the corrugation: about 2 mm) was uniformly impregnated with 3 ml of an acetone solution containing about 500 mg of preparation. The impregnated carrier was set in the apparatus after acetone vaporized.

COP(=O)(OC)OC=C(Cl)Cl [DDVP]
Vapor Pressure ([1]; 20° C.): 1.2 × 10^−2 mmHg
Vapor Pressure ([1]; 25° C.): 1.9 × 10^−2 mmHg
Vapor Pressure ([1]; 30° C.): 3.0 × 10^−2 mmHg
Vapor Pressure ([1]; 35° C.): 4.6 × 10^−2 mmHg
Vapor Pressure ([1]; 40° C.): 7.1 × 10^−2 mmHg
Vapor Pressure [2]: 1×10^−2 mmHg

C#CC(OC(=O)C1C(C=C(C)C)C1(C)C)/C(C)=C/CC (mixture of isomers) [empenthrin, 1-ethynyl-2-methyl-2-pentenyl dl-cis/trans-3-(2,2-dimethylvinyl)-2,2-dimethyl-1-cyclopropanecarboxylate]
Knockdown Ratio (%) ([3]; 1 hr): 0%
Knockdown Ratio (%) ([3]; 2 hrs): 0%
Knockdown Ratio (%) ([3]; 4 hrs): 0%
Knockdown Ratio (%) ([3]; 24 hrs): 90.0%
Mortality at 48 hrs (%) ([3]; 48 hrs): 90.0%
Knockdown Ratio (%) ([4]; 1 hr): 0%
Knockdown Ratio (%) ([4]; 2 hrs): 0%
Knockdown Ratio (%) ([4]; 4 hrs): 0%
Knockdown Ratio (%) ([4]; 24 hrs): 65.0%
Mortality at 48 hrs (%) ([4]; 48 hrs): 75.0%
Vapor Pressure ([1]; 20° C.): 5.1 × 10^−4 mmHg
Vapor Pressure ([1]; 25° C.): 9.2 × 10^−4 mmHg
Vapor Pressure ([1]; 30° C.): 1.6 × 10^−3 mmHg
Vapor Pressure ([1]; 35° C.): 2.8 × 10^−3 mmHg
Vapor Pressure ([1]; 40° C.): 4.8 × 10^−3 mmHg
Vapor Pressure at 30° C. [5]: 1.5 × 10^−3 mmHg
number of knockdowns ([6]; 0.5 min): 0
number of knockdowns ([6]; 1.0 min): 0
number of knockdowns ([6]; 1.5 min): 1
number of knockdowns ([6]; 2.0 min): 2
number of knockdowns ([6]; 2.5 min): 5
number of knockdowns ([6]; 3.0 min): 10
number of knockdowns ([6]; 3.5 min): 16
number of knockdowns ([6]; 4.0 min): 25
Mortality (%) ([6]; 24 hrs.): 96%
Mortality (%) ([6]; 48 hrs.): 100%

CC(C)=CC1C(C(=O)OCc2coc(Cc3ccccc3)c2)C1(C)C (mixture of isomers) [resmethrin, (5-benzyl-3-furyl)methyl d-cis/trans-chrysanthemate]
Vapor Pressure ([1]; 20° C.): 3.5 × 10^−6 mmHg
Vapor Pressure ([1]; 25° C.): 7.1 × 10^−6 mmHg
Vapor Pressure ([1]; 30° C.): 1.7 × 10^−5 mmHg
Vapor Pressure ([1]; 35° C.): 2.8 × 10^−5 mmHg
Vapor Pressure ([1]; 40° C.): 5.6 × 10^−5 mmHg
Vapor Pressure at 30° C. [5]: 1.7 × 10^−5 mmHg
number of knockdowns ([6]; 0.5 min): 0
number of knockdowns ([6]; 1.0 min): 0
number of knockdowns ([6]; 1.5 min): 0
number of knockdowns ([6]; 2.0 min): 0
number of knockdowns ([6]; 2.5 min): 2
number of knockdowns ([6]; 3.0 min): 2
number of knockdowns ([6]; 3.5 min): 4
number of knockdowns ([6]; 4.0 min): 5
number of knockdowns ([6]; 4.5 min): 5
number of knockdowns ([6]; 5.0 min): 7
number of knockdowns ([6]; 5.5 min): 7
number of knockdowns ([6]; 6.0 min): 8
number of knockdowns ([6]; 6.5 min): 10
number of knockdowns ([6]; 7.0 min): 12
number of knockdowns ([6]; 7.5 min): 13
number of knockdowns ([6]; 8.0 min): 16
number of knockdowns ([6]; 8.5 min): 17
number of knockdowns ([6]; 9.0 min): 19
Mortality (%) ([6]; 24 hrs.): 58%
Mortality (%) ([6]; 48 hrs.): 79%
